Values quoted from earlier work in patent publication US20240191206A1, “SERUM FREE MEDIA FOR SUSPENSION CULTURE OF MAMMALIAN LIVESTOCK PLURIPOTENT STEM CELLS” (ACCELLTA LTD., priority 2021, published 2024).

O=S(=O)(F)Cc1ccccc1 [PMSF, phenylmethylsulfonyl fluoride]
concentration at which proteolytic inhibition occurs (serine protease): 0.1 to 1 mM | stability in water: rapidly degraded
